According to patent US11642671B2, “Electrowetting on dielectric (EWOD) device to perform liquid-to-liquid extraction (LLE) of biomolecules and systems and methods for using the EWOD device” (Board of Regents, The University of Texas System, priority 2019, dated 2023):

Assay: Multistage LLE (MLLE) of binary dye mixture on EWOD device with IL extractant
Assay type: physicochemical
Settings: binary 1:1 green/yellow dye sample
Procedure: The sample phase was prepared by mixing equal amounts of these two dyes. The final concentration of each analyte in the sample mixture formed was 1250 μg/ml for all the EWOD LLE experiments. […]
For the LLE process on an EWOD DMF electrode array, the droplets were generated, mixed, and split during the process. […] The on-chip concentration method quantified the yield of the LLE process. […]
In order to explore this characteristic of EWOD, MLLE was performed in this study with two cycles of LLE. […] After each cycle of the process, the sample droplet was transported to the concentration measurement electrode, and the voltage measurement was done for absorbance.
Next, the results of binary separation by MLLE performed on the EWOD device 20 was compared with theoretical values. The theoretical values were calculated from the partition coefficient values of each solute obtained in the manner described above. […]

green dye extracted after first cycle of LLE on EWOD (IL extractant, extraction time 5 minutes): ~50%
initial green dye extracted at the end of the second cycle (fresh IL droplet, two MLLE cycles): ~60%
SMILES: Cc1ccc(Nc2ccc(Nc3ccc(C)cc3S(=O)(=O)[O-])c3c2C(=O)c2ccccc2C3=O)c(S(=O)(=O)[O-])c1.[Na+].[Na+] [green dye, acid green 25]
